Laboratory results published in patent US10150766B2, “P2X7 modulators” (Jansssen Pharmaceutica NV, priority 2014, dated 2018).
Several values for one entry are separate records, joined by “and”; a condition that tells them apart may be missing. Identical values can stand only once. Like-named read-outs stand apart in the source and are kept apart here.

Legend:
rat P2X7 = rat P2X7 (Rattus norvegicus (Rat), UniProt Q64663); assay: P2X7 antagonism in recombinant rat P2X7 cells (column headed P2X7 Rat IC50); assay type: binding
Protocol: The in vitro affinity of the compounds of the invention for the rat and human P2X7 receptor was determined using a human peripheral blood mononuclear cells (PBMCs), a human whole blood assay, a Ca^2+ flux and radioligand binding assay in recombinant human P2X7 cells and recombinant rat P2X7 cells. […] The data represented in Tables 2 may represent a value from a single determination or when the experiment was run more than once, the data represents the average from between 2-12 runs.
P2X7 Antagonism in Recombinant Human P2X7 Cells or Recombinant Rat P2X7 Cells: […]

P2X7 [1] = molecular target: T1, P2X7 (Homo sapiens (Human), UniProt Q99572); assay: P2X7 antagonism in human peripheral blood mononuclear cells (PBMCs), IL-1β release (LPS + Bz-ATP, ELISA); assay type: cell-based; details: P2X7, 10 μM test compound, LPS 30 ng/ml + Bz-ATP 0.5 mM, read-out: PBMC @10 μM (% control)
Protocol: (§1) P2X7 Antagonism in Human Peripheral Blood Mononuclear Cells (PBMCs) and Human Whole Blood.
(§2) Human blood was collected using a blood donor program. PBMCs were isolated from blood using a Ficoll density gradient technique. Briefly, blood was laid on Ficoll solution and centrifuged at ROOM TEMPERATURE for 20 minutes at 2000 rpm. The buffy layer (between red blood cells and plasma) was carefully collected by aspiration, washed with PBS and centrifuged again at 1500 rpm for 15 minutes. The resulting cell pellet was washed and plated on 96 well-plates for experiments. For the Human Whole Blood experiments, 150 μl of human blood was plated on 96 well-plates. Lipopolysaccharide (LPS) (30 ng/ml) was added to each well and incubated for 1 hour. Test compounds were then added and incubated for 30 minutes. The P2X7 agonist, 2′(3′)-O-(4-benzoylbenzoyl) adenosine 5′-triphosphate (Bz-ATP) was then added at a final concentration of 0.5 mM (PBMC) or 1 mM (blood). Cells were incubated for an additional 1.5 hours. At that point, supernatant was collected and stored for IL-1β assay using manufacturer's protocol for enzyme-linked immunosorbant assay (ELISA). Data was expressed as percent control, where control is defined as the difference in IL-1β release in LPS+Bz-ATP samples and LPS only samples. Data was plotted as response (% control) versus concentration to generate IC50 values. […] Data are analyzed and graphed on Graphpad Prism 5. For analysis, each concentration point is averaged from triplicate values and the averaged values are plotted on Graphpad Prism. The IC50 for each compound is then uploaded into 3DX.

P2X7 [2] = molecular target: T1, P2X7; assay: P2X7 antagonism in human whole blood, IL-1β release (LPS + Bz-ATP, ELISA); assay type: cell-based; details: LPS 30 ng/ml + Bz-ATP 1 mM
Protocol: as §1, §2

[3] = read-out: Human Whole Blood IC50

rat P2X7, sequence (Q64663 whole entry): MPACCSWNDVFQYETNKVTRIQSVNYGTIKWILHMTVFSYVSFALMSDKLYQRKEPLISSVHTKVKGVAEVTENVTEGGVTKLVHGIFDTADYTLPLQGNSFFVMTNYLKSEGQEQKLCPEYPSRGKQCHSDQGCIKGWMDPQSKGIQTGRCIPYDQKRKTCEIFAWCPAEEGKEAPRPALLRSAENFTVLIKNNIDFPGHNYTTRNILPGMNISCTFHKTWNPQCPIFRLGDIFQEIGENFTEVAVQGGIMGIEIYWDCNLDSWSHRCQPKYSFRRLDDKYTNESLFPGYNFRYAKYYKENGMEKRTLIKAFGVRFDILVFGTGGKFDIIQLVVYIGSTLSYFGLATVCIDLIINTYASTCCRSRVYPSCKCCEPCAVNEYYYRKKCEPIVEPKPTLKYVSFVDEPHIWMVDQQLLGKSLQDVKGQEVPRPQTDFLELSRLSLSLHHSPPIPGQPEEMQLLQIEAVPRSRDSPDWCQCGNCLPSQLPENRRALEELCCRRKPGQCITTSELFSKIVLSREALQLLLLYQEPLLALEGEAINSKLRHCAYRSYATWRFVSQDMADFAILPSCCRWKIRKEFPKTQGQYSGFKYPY
T1 sequence (Q99572 whole entry): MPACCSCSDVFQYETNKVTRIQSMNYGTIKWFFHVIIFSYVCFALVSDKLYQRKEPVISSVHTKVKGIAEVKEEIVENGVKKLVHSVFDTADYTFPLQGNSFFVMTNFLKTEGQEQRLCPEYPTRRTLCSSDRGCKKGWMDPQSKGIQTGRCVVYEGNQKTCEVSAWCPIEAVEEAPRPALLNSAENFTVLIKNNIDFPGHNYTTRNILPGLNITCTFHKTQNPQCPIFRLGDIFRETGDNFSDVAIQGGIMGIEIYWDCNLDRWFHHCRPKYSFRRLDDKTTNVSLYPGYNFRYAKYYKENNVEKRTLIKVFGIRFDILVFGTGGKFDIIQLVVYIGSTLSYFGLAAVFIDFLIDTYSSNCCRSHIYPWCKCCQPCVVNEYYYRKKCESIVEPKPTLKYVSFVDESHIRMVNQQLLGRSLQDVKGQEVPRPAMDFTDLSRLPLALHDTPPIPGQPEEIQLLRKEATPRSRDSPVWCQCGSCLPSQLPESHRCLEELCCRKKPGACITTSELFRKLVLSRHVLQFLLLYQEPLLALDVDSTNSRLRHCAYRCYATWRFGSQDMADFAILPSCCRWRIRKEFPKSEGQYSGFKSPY

Row | Structure (SMILES) | IC50 (rat P2X7) [nM] | remaining activity at 10 µM (P2X7 [1]) [%] | IC50 (P2X7 [2]; Human Whole Blood IC50 (μM)) | IC50 (P2X7 [2]; [3]) [µM]
1 | Cc1nc(-c2ccn[nH]2)c2c(n1)[C@@H]1CCC[C@H](C2)N1C(=O)c1cccc(C(F)(F)F)c1Cl [Example 3, (2-chloro-3-(trifluoromethyl)phenyl)((6R,10S)-2-methyl-4-(1H-pyrazol-5-yl)-5,6,7,8,9,10-hexahydro-6,10-epiminocycloocta[d]pyrimidin-11-yl)methanone] | 811 | 22 |  | 
2 | Cc1nc(-c2ccn[nH]2)c2c(n1)[C@@H]1CCC[C@H](C2)N1C(=O)c1cccc(C(F)(F)F)c1C [Example 6, (2-methyl-3-(trifluoromethyl)phenyl)((6R,10S)-2-methyl-4-(1H-pyrazol-5-yl)-5,6,7,8,9,10-hexahydro-6,10-epiminocycloocta[d]pyrimidin-11-yl)methanone] | 970 | 18.1 | 1.13 µM | 
3 | Cc1nc(-c2ccc(F)cc2)c2c(n1)[C@@H]1CCC[C@H](C2)N1C(=O)c1ccc(F)c(Cl)c1Cl [Example 17, (2,3-dichloro-4-fluorophenyl)((6R,10S)-4-(4-fluorophenyl)-2-methyl-5,6,7,8,9,10-hexahydro-6,10-epiminocycloocta[d]pyrimidin-11-yl)methanone] |  | 13.3 | 2.02 µM | 
4 | Cc1nc(-c2ccc(F)cc2)c2c(n1)[C@H]1CCC[C@@H](C2)N1C(=O)c1ccc(Cl)c(F)c1Cl [Example 54, (2,4-dichloro-3-fluorophenyl)((6S,10R)-4-(4-fluorophenyl)-2-methyl-5,6,7,8,9,10-hexahydro-6,10-epiminocycloocta[d]pyrimidin-11-yl)methanone] | 372 | 9.3 |  | 
5 | Cc1nc(-c2ccc(F)cc2)c2c(n1)[C@@H]1CCC[C@H](C2)N1C(=O)c1ccc(Cl)cc1Cl [Example 15, (2,4-dichlorophenyl)((6R,10S)-4-(4-fluorophenyl)-2-methyl-5,6,7,8,9,10-hexahydro-6,10-epiminocycloocta[d]pyrimidin-11-yl)methanone] |  |  | 5.05 µM and 13.3 µM | 
6 | Cc1nc(-c2ccc(F)cc2)c2c(n1)[C@H]1CCC[C@@H](C2)N1C(=O)c1ccnc(C(F)(F)F)c1Cl [Example 52, (3-chloro-2-(trifluoromethyl)pyridin-4-yl)((6S,10R)-4-(4-fluorophenyl)-2-methyl-5,6,7,8,9,10-hexahydro-6,10-epiminocycloocta[d]pyrimidin-11-yl)methanone] | 81.8 | -1.2 |  | 
7 | Cc1nc(-c2ccn[nH]2)c2c(n1)[C@@H]1CCC[C@H](C2)N1C(=O)c1ccc(Cl)cc1F [Example 12, (4-chloro-2-fluorophenyl)((6R,10S)-2-methyl-4-(1H-pyrazol-5-yl)-5,6,7,8,9,10-hexahydro-6,10-epiminocycloocta[d]pyrimidin-11-yl)methanone] | > 10000 | 92.6 |  | 6.12
8 | Cc1nc(-c2ccn[nH]2)c2c(n1)C1CCCC(C2)N1C(=O)c1cccc(C(F)(F)F)c1Cl (centres unmarked) [Example 2, (2-chloro-3-(trifluoromethyl)phenyl)(2-methyl-4-(1H-pyrazol-5-yl)-5,6,7,8,9,10-hexahydro-6,10-epiminocycloocta[d]pyrimidin-11-yl)methanone] |  | 1.1 |  | 
9 | Cc1nc(-c2ccn[nH]2)c2c(n1)[C@H]1CCC[C@@H](C2)N1C(=O)c1cccc(C(F)(F)F)c1Cl [Example 19, (2-chloro-3-(trifluoromethyl)phenyl)((6S,10R)-2-methyl-4-(1H-pyrazol-5-yl)-5,6,7,8,9,10-hexahydro-6,10-epiminocycloocta[d]pyrimidin-11-yl)methanone] | 12.2 | -3 |  | 
10 | Cc1nc(-c2cnccn2)c2c(n1)[C@H]1CCC[C@@H](C2)N1C(=O)c1cccc(Cl)c1Cl [Example 48, (2,3-dichlorophenyl)((6S,10R)-2-methyl-4-(pyrazin-2-yl)-5,6,7,8,9,10-hexahydro-6,10-epiminocycloocta[d]pyrimidin-11-yl)methanone] | 54.3 | -4.3 |  | 
11 | Cc1nc(-c2cnn(C)c2)c2c(n1)[C@H]1CCC[C@@H](C2)N1C(=O)c1ccc(Cl)c(F)c1Cl [Example 35, (2,4-dichloro-3-fluorophenyl)((6S,10R)-2-methyl-4-(1-methyl-1H-pyrazol-4-yl)-5,6,7,8,9,10-hexahydro-6,10-epiminocycloocta[d]pyrimidin-11-yl)methanone] | > 10000 | 9.1 |  | 2.3
12 | Cc1nc(-c2cnn(C)c2)c2c(n1)[C@H]1CCC[C@@H](C2)N1C(=O)c1cccc(C(F)(F)F)c1Cl [Example 30, (2-chloro-3-(trifluoromethyl)phenyl)((6S,10R)-2-methyl-4-(1-methyl-1H-pyrazol-4-yl)-5,6,7,8,9,10-hexahydro-6,10-epiminocycloocta[d]pyrimidin-11-yl)methanone] | > 10000 | -3.7 |  | 
13 | Cc1nc(-c2ccc(F)cc2)c2c(n1)[C@@H]1CCC[C@H](C2)N1C(=O)c1ccnc(C(F)(F)F)c1Cl [Example 18, (3-chloro-2-(trifluoromethyl)pyridin-4-yl)((6R,10S)-4-(4-fluorophenyl)-2-methyl-5,6,7,8,9,10-hexahydro-6,10-epiminocycloocta[d]pyrimidin-11-yl)methanone] | > 10000 | 28.9 |  | 
14 | Cc1nc(-c2ncccn2)c2c(n1)[C@H]1CCC[C@@H](C2)N1C(=O)c1cccc(C(F)(F)F)c1C [Example 43, (2-methyl-3-(trifluoromethyl)phenyl)((6S,10R)-2-methyl-4-(pyrimidin-2-yl)-5,6,7,8,9,10-hexahydro-6,10-epiminocycloocta[d]pyrimidin-11-yl)methanone] | 41.7 | 15 |  | 
15 | Cc1nc(-c2cnn(C)c2)c2c(n1)[C@H]1CCC[C@@H](C2)N1C(=O)c1ccc(Cl)cc1Cl [Example 40, (2,4-dichlorophenyl)((6S,10R)-2-methyl-4-(1-methyl-1H-pyrazol-4-yl)-5,6,7,8,9,10-hexahydro-6,10-epiminocycloocta[d]pyrimidin-11-yl)methanone] |  | 76.2 |  | 
16 | Cc1nc(-c2ccn[nH]2)c2c(n1)[C@H]1CCC[C@@H](C2)N1C(=O)c1cccc(C(F)(F)F)c1F [Example 26, (2-fluoro-3-(trifluoromethyl)phenyl)((6S,10R)-2-methyl-4-(1H-pyrazol-5-yl)-5,6,7,8,9,10-hexahydro-6,10-epiminocycloocta[d]pyrimidin-11-yl)methanone] | 41.4 | -3.8 |  | 
17 | Cc1nc(-c2cnccn2)c2c(n1)[C@H]1CCC[C@@H](C2)N1C(=O)c1ccnc(C(F)(F)F)c1Cl [Example 49, (3-chloro-2-(trifluoromethyl)pyridin-4-yl)((6S,10R)-2-methyl-4-(pyrazin-2-yl)-5,6,7,8,9,10-hexahydro-6,10-epiminocycloocta[d]pyrimidin-11-yl)methanone] | 139 | -1.9 |  | 
18 | Cc1nc(-c2ccn[nH]2)c2c(n1)[C@@H]1CCC[C@H](C2)N1C(=O)c1ccc(Cl)cc1Cl [Example 5, (2,4-dichlorophenyl)((6R,10S)-2-methyl-4-(1H-pyrazol-5-yl)-5,6,7,8,9,10-hexahydro-6,10-epiminocycloocta[d]pyrimidin-11-yl)methanone] |  | 76.5 | 2 µM | 
19 | Cc1nc(-c2cnn(C)c2)c2c(n1)[C@H]1CCC[C@@H](C2)N1C(=O)c1ccc(F)cc1Cl [Example 36, (2-chloro-4-fluorophenyl)((6S,10R)-2-methyl-4-(1-methyl-1H-pyrazol-4-yl)-5,6,7,8,9,10-hexahydro-6,10-epiminocycloocta[d]pyrimidin-11-yl)methanone] |  | 73.8 |  | 
20 | Cc1nc(-c2ccccn2)c2c(n1)[C@H]1CCC[C@@H](C2)N1C(=O)c1ccnc(C(F)(F)F)c1Cl [Example 61, (3-chloro-2-(trifluoromethyl)pyridin-4-yl)((6S,10R)-2-methyl-4-(pyridin-2-yl)-5,6,7,8,9,10-hexahydro-6,10-epiminocycloocta[d]pyrimidin-11-yl)methanone] | 46 | 0.4 |  | 
21 | Cc1nc(-c2ccn[nH]2)c2c(n1)[C@@H]1CCC[C@H](C2)N1C(=O)c1cccc(C(F)(F)F)c1F [Example 8, (2-fluoro-3-(trifluoromethyl)phenyl)((6R,10S)-2-methyl-4-(1H-pyrazol-5-yl)-5,6,7,8,9,10-hexahydro-6,10-epiminocycloocta[d]pyrimidin-11-yl)methanone] | 601 | 31.9 |  | 
